US20050238706A1, “Pharmaceutically active lipid based formulation of SN-38” (NeoPharm, Inc., priority 2002, published 2005)

Experiments:
[1] = system: topoisomerase I purified from human and rodent tumor cell lines; conditions: enzyme purified from human and rodent tumor cell lines; cited from earlier work
[2] = cited from earlier work
[3] = system: HT-29 human colon cancer cells; experiment: Therapeutic efficacy in HT-29 xenograft, SCID mice; type: in vivo; conditions: 8 mg/kg × 5, iv, day 28 post treatment, n = 5
Text: (§1) Either female CD2F1 (6-8 weeks old) mice or female C.B-17 SCID mice (4-6 weeks old) were obtained from the vendor and maintained as described previously. The CD2F1 mice were transplanted with P388 murine leukemia tumor cells, whereas the SCID mice were transplanted with HT-29 human colon cancer cells, Capan-1 human pancreatic cancer cells and MX-1 human breast cancer cells. After a suitable waiting period (waiting period varied based on the tumor models), each mouse received intravenous injection via tail vein of placebo liposomes, LE-SN38 or CPT-11 at pre-determined dose levels.

[4] = system: P388 murine leukemia tumor cells; experiment: Therapeutic efficacy in P388 tumor bearing CD2F1 mice; type: in vivo, mouse; conditions: for 60-day % Survival: n = 10
Text: as §1

[5] = system: Capan-1 human pancreatic cancer cells; experiment: Therapeutic efficacy in Capan-1 xenograft, SCID mice; type: in vivo; conditions: day 28 post treatment, n = 5
Text: as §1

In the case of CCc1c2c(nc3ccc(O)cc13)-c1cc3c(c(=O)n1C2)COC(=O)[C@]3(O)CC [SN38, (+)-(4S)-4,11-diethyl-4,9-dihydroxy-1H-pyrano[3′,4′:6,7]-indolizino[1,2-b]quinoline-3,14(4H,12H)-dione], the “potency as an inhibitor of topoisomerase I relative to irinotecan” value [1] is given as “approximately 1000 times” and the “solubility in aqueous solutions” value [2] is given as “exceedingly insoluble”.
For CCc1c2c(nc3ccc(OC(=O)N4CCC(N5CCCCC5)CC4)cc13)-c1cc3c(c(=O)n1C2)COC(=O)[C@]3(O)CC [CPT-11, irinotecan], the “% Growth Inhibition” value [3] was 36%, the median survival time ([4]; 4 mg/kg for 5 consecutive days) was 16 days and the “60-day % Survival” value ([4]; 4 mg/kg × 5, iv) was 0%. For the same compound, the median survival time ([4]; 8 mg/kg for 5 consecutive days) was 20 days, the “60-day % Survival” value ([4]; 8 mg/kg × 5, iv) was 0% and the median survival time ([4]; 16 mg/kg for 5 consecutive days) was 22 days. For the same compound, the “% Growth Inhibition” value ([5]; 8 mg/kg × 5, iv) was 47.8% and the “% Growth Inhibition” value ([5]; 16 mg/kg × 5, iv) was 68.7%.
